From ChEMBL document CHEMBL3227999, “Synthesis and biological properties of N2-substituted spin-labeled analogues of actinomycin D” (J Med Chem, 1979)
Calls of active or inactive are those of the source. No cut-off for these calls is given here.

What was measured:
[1] = target: T1, Bacterial DNA-directed RNA polymerase (Bacteria) (UniProt P0A8V2+P0A7Z4+P0A8T7+P0A800); experiment: Inhibition of Escherichia coli DNA-dependent RNA polymerase at 5 ug/ml using calf thymus DNA as primer; assay type: protein-complex assay
T1 sequence (P0A7Z4 whole entry partner): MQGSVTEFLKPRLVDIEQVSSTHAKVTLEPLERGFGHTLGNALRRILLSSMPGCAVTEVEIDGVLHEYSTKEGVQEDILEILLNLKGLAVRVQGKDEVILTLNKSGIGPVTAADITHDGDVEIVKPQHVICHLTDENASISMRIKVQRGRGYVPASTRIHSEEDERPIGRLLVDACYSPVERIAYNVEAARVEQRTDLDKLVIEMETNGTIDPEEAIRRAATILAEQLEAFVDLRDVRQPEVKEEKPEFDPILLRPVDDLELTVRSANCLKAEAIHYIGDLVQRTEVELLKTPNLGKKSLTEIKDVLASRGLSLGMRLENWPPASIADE
T1 sequence (P0A800 2-91 partner limits assumed): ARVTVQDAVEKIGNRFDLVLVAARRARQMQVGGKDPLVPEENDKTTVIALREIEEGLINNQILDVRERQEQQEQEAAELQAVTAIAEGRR
T1 sequence (P0A8T7 whole entry partner): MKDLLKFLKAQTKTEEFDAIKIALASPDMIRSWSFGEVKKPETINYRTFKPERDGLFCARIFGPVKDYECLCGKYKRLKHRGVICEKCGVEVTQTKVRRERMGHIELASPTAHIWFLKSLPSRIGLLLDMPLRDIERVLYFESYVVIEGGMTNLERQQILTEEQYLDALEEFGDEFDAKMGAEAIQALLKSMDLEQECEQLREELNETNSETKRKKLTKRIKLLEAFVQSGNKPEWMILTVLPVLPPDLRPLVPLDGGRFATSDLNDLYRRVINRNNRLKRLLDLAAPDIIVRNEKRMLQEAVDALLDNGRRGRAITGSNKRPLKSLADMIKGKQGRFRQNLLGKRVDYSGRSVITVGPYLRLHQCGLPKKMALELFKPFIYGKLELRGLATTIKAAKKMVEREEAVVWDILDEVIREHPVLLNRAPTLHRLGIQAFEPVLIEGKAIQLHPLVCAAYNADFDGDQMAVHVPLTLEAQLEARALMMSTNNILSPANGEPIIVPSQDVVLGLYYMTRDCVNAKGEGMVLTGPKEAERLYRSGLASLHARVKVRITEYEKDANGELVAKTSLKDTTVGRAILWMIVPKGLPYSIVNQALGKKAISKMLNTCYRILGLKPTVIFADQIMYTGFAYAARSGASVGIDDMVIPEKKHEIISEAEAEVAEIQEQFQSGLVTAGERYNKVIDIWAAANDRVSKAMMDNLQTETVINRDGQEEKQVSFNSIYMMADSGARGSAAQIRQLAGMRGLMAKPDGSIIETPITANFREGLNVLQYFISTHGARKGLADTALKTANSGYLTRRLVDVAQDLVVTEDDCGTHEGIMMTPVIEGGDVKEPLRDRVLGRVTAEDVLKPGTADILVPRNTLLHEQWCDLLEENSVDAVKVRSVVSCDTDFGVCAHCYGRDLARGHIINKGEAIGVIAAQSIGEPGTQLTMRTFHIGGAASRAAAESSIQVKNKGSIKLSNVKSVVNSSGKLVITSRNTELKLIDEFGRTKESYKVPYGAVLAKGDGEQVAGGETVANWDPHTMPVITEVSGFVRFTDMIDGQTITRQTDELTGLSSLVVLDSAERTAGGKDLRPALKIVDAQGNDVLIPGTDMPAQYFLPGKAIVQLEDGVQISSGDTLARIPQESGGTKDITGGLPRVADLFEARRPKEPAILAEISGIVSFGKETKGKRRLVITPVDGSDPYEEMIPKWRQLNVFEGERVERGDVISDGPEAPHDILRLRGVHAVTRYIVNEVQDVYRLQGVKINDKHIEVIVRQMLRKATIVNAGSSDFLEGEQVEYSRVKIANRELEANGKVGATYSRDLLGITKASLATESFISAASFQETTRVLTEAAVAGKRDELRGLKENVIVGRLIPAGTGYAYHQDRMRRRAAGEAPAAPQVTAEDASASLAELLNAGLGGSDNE
T1 sequence (P0A8V2 whole entry): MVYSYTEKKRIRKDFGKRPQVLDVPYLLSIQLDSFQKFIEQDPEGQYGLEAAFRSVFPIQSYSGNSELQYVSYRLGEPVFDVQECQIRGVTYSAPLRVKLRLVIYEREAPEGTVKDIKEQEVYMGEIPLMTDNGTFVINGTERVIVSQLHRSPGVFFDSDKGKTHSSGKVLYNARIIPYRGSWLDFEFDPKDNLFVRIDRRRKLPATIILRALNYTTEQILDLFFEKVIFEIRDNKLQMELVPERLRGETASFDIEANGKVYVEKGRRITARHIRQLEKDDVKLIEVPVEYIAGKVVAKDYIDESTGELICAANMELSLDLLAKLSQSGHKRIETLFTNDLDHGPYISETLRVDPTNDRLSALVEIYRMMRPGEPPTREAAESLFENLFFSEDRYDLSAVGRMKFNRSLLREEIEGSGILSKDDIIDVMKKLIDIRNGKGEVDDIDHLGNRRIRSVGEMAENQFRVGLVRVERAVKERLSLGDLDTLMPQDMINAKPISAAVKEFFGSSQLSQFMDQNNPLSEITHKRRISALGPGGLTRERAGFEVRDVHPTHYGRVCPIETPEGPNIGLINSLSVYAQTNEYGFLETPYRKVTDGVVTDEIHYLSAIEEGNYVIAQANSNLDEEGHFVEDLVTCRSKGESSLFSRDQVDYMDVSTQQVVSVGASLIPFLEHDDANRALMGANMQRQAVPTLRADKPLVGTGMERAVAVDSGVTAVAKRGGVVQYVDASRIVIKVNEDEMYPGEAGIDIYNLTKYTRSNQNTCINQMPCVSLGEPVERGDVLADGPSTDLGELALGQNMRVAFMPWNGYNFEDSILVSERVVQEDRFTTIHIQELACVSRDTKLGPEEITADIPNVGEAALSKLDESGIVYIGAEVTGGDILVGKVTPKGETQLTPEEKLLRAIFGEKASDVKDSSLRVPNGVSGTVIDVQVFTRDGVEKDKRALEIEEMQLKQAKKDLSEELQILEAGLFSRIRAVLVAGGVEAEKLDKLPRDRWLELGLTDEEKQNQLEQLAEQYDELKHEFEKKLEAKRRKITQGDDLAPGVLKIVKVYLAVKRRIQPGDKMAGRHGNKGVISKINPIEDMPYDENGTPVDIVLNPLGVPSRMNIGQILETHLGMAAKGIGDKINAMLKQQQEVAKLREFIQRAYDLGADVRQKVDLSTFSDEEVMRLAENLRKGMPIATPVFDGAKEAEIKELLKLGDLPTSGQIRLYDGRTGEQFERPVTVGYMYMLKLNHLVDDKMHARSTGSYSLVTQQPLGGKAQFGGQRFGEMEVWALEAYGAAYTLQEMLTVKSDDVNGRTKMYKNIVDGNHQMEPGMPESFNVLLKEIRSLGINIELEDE

P388 [2] = experiment: Antitumor activity against mouse P388 cells allografted in CDF1 mouse assessed as survival at 6 mg/kg, ip administered on day 1, 5 and 9; assay type: functional; details: route intraperitoneal
L1210 [3] = experiment: Cytotoxicity against mouse L1210 cells at 0.05 ug/ml after 48 hrs; assay type: functional; details: L1210, 48 h
[4] = target: T1, Bacterial DNA-directed RNA polymerase (Bacteria); experiment: Inhibition of Escherichia coli DNA-dependent RNA polymerase at 20 ug/ml using calf thymus DNA as primer; assay type: protein-complex assay
P388 [5] = experiment: Antitumor activity against mouse P388 cells allografted in CDF1 mouse assessed as survival at 1.2 mg/kg, ip administered on day 1, 5 and 9; assay type: functional; details: route intraperitoneal
[6] = target: T1, Bacterial DNA-directed RNA polymerase (Bacteria); experiment: Inhibition of Escherichia coli DNA-dependent RNA polymerase at 2.5 ug/ml using calf thymus DNA as primer; assay type: protein-complex assay
L1210 [7] = experiment: Cytotoxicity against mouse L1210 cells at 0.001 ug/ml after 48 hrs; assay type: functional; details: L1210, 48 h
Calf thymus DNA [8] = experiment: Binding affinity to calf thymus DNA at 1 x 10^-5 M by lectron spin resonance analysis; assay type: nucleic-acid assay; details: Bos taurus
L1210 [9] = experiment: Cytotoxicity against mouse L1210 cells at 0.1 ug/ml after 48 hrs; assay type: functional; details: L1210, 48 h
L1210 [10] = experiment: Cytotoxicity against mouse L1210 cells at 5 ug/ml after 48 hrs; assay type: functional; details: L1210, 48 h
L1210 [11] = experiment: Cytotoxicity against mouse L1210 cells at 0.01 ug/ml after 48 hrs; assay type: functional; details: L1210, 48 h
P388 [12] = experiment: Antitumor activity against mouse P388 cells allografted in CDF1 mouse assessed as survival at 2.7 mg/kg, ip administered on day 1, 5 and 9; assay type: functional; details: route intraperitoneal
L1210 [13] = experiment: Cytotoxicity against mouse L1210 cells at 0.5 ug/ml after 48 hrs; assay type: functional; details: L1210, 48 h
P388 [14] = experiment: Antitumor activity against mouse P388 cells allografted in CDF1 mouse assessed as survival at 4 mg/kg, ip administered on day 1, 5 and 9; assay type: functional; details: route intraperitoneal
Calf thymus DNA [15] = experiment: Binding affinity to calf thymus DNA at 1 x 10^-5 M after 30 mins by circular dichroism analysis; assay type: nucleic-acid assay; details: Bos taurus
[16] = target: T1, Bacterial DNA-directed RNA polymerase (Bacteria); experiment: Inhibition of Escherichia coli DNA-dependent RNA polymerase at 20 ug/ml using Micrococcus luteus DNA as primer; assay type: protein-complex assay
[17] = target: T1, Bacterial DNA-directed RNA polymerase (Bacteria); experiment: Inhibition of Escherichia coli DNA-dependent RNA polymerase at 2.5 ug/ml using Micrococcus luteus DNA as primer; assay type: protein-complex assay
P388 [18] = experiment: Antitumor activity against mouse P388 cells allografted in CDF1 mouse assessed as survival at 1.8 mg/kg, ip administered on day 1, 5 and 9; assay type: functional; details: route intraperitoneal
L1210 [19] = experiment: Cytotoxicity against mouse L1210 cells at 10 ug/ml after 48 hrs; assay type: functional; details: L1210, 48 h
P388 [20] = experiment: Antitumor activity against mouse P388 cells allografted in CDF1 mouse assessed as survival at 0.8 mg/kg, ip administered on day 1, 5 and 9; assay type: functional; details: route intraperitoneal
[21] = target: T1, Bacterial DNA-directed RNA polymerase (Bacteria); experiment: Inhibition of Escherichia coli DNA-dependent RNA polymerase at 5 ug/ml using Micrococcus luteus DNA as primer; assay type: protein-complex assay
L1210 [22] = experiment: Cytotoxicity against mouse L1210 cells at 1 ug/ml after 48 hrs; assay type: functional; details: L1210, 48 h
Calf thymus DNA [23] = experiment: Binding affinity to calf thymus DNA at 1 x 10^-5 M by thermal denaturation assay; assay type: nucleic-acid assay; details: Bos taurus
[24] = target: T1, Bacterial DNA-directed RNA polymerase (Bacteria); experiment: Inhibition of Escherichia coli DNA-dependent RNA polymerase at 10 ug/ml using Micrococcus luteus DNA as primer; assay type: protein-complex assay
[25] = target: T1, Bacterial DNA-directed RNA polymerase (Bacteria); experiment: Inhibition of Escherichia coli DNA-dependent RNA polymerase at 10 ug/ml using calf thymus DNA as primer; assay type: protein-complex assay
Mus musculus [26] = experiment: Toxicity in mouse P388 cells allografted CDF1 mouse assessed as weight loss at 4 mg/kg, ip administered on day 1, 5 and 9; assay type: organism-based; design: dose 4 mg/kg, route intraperitoneal; details: in vivo
[27] = target: Bacterial DNA-directed RNA polymerase (Bacteria, UniProt P0A7Z4+P0A800+P0A8T7+P0A8V2); experiment: Inhibition of Escherichia coli DNA-dependent RNA polymerase; assay type: protein-complex assay
Mus musculus [28] = experiment: Toxicity in mouse P388 cells allografted CDF1 mouse assessed as mortality at 6 mg/kg, ip administered on day 1, 5 and 9; assay type: organism-based; design: dose 6 mg/kg, route intraperitoneal; details: in vivo
Mus musculus [29] = experiment: Toxicity in mouse P388 cells allografted CDF1 mouse assessed as weight loss at 6 mg/kg, ip administered on day 1, 5 and 9; assay type: organism-based; design: dose 6 mg/kg, route intraperitoneal; details: in vivo

Row | Structure (SMILES) | inhibition [1] [%] | Survival (P388 [2]) [days] | T/C (P388 [2]) [%] | inhibition at 0.05 µg/mL (L1210 [3]) [%] | inhibition [4] [%] | Survival (P388 [5]) [days] | T/C (P388 [5]) [%] | inhibition [6] [%] | inhibition at 0.001 µg/mL (L1210 [7]) [%] | Activity (Calf thymus DNA [8]) | inhibition at 0.1 µg/mL (L1210 [9]) [%] | inhibition at 5 µg/mL (L1210 [10]) [%] | inhibition at 0.01 µg/mL (L1210 [11]) [%] | Survival (P388 [12]) [days] | T/C (P388 [12]) [%] | inhibition at 0.5 µg/mL (L1210 [13]) [%] | Survival (P388 [14]) [days] | T/C (P388 [14]) [%] | Activity (Calf thymus DNA [15]) | inhibition [16] [%] | other results
1 | Cc1c2oc3c(C)ccc(C(=O)N[C@@H]4C(=O)N[C@H](C(C)C)C(=O)N5CCC[C@H]5C(=O)N(C)CC(=O)N(C)[C@@H](C(C)C)C(=O)O[C@@H]4C)c3nc-2c(C(=O)N[C@@H]2C(=O)N[C@H](C(C)C)C(=O)N3CCC[C@H]3C(=O)N(C)CC(=O)N(C)[C@@H](C(C)C)C(=O)O[C@@H]2C)c(NCCNC2CC(C)(C)N([O])C(C)(C)C2)c1=O | 61 | 8 | 76 | 15 | 88 | 16 | 152 | 43 | 0 | inactive | 41 | 98 | 0 | 19 | 181 | 62 | 25 | 238 | inactive | 91 | inhibition [17]: 42%; Survival (P388 [18]): 17 days; T/C (P388 [18]): 162%; inhibition at 10 µg/mL (L1210 [19]): 99%; Survival (P388 [20]): 19 days; T/C (P388 [20]): 181%; inhibition [21]: 56%; inhibition at 1 µg/mL (L1210 [22]): 71%; ΔTm (Calf thymus DNA [23]): 2.8 °C; inhibition [24]: 78%; inhibition [25]: 81%
2 | Cc1c2oc3c(C)ccc(C(=O)N[C@@H]4C(=O)N[C@H](C(C)C)C(=O)N5CCC[C@H]5C(=O)N(C)CC(=O)N(C)[C@@H](C(C)C)C(=O)O[C@@H]4C)c3nc-2c(C(=O)N[C@@H]2C(=O)N[C@H](C(C)C)C(=O)N3CCC[C@H]3C(=O)N(C)CC(=O)N(C)[C@@H](C(C)C)C(=O)O[C@@H]2C)c(NCCCNC2CC(C)(C)N([O])C(C)(C)C2)c1=O | 78 | 29 | 171 | 0 | 79 | 15 | 143 | 28 | 0 | Active | 16 | 69 | 0 | 18 | 181 | 33 | 18 | 171 | Active | 62 | inhibition [17]: 22%; Survival (P388 [18]): 19 days; T/C (P388 [18]): 143%; inhibition at 10 µg/mL (L1210 [19]): 98%; Survival (P388 [20]): 15 days; inhibition [21]: 52%; inhibition at 1 µg/mL (L1210 [22]): 45%; ΔTm (Calf thymus DNA [23]): 3.5 °C; inhibition [24]: 32%; inhibition [25]: 49%
3 | Cc1c2oc3c(C)ccc(C(=O)N[C@@H]4C(=O)N[C@H](C(C)C)C(=O)N5CCC[C@H]5C(=O)N(C)CC(=O)N(C)[C@@H](C(C)C)C(=O)O[C@@H]4C)c3nc-2c(C(=O)N[C@@H]2C(=O)N[C@H](C(C)C)C(=O)N3CCC[C@H]3C(=O)N(C)CC(=O)N(C)[C@@H](C(C)C)C(=O)O[C@@H]2C)c(NCCNC2CC(C)(C)[N+]([O-])C(C)(C)C2)c1=O |  |  |  |  |  |  |  |  |  |  |  |  |  |  |  |  |  |  |  |  | Activity (Mus musculus [26]): Toxic; IC50 [27]: 2750 nM; Activity (Mus musculus [28]): Toxic
4 | Cc1c2oc3c(C)ccc(C(=O)N[C@@H]4C(=O)N[C@H](C(C)C)C(=O)N5CCC[C@H]5C(=O)N(C)CC(=O)N(C)[C@@H](C(C)C)C(=O)O[C@@H]4C)c3nc-2c(C(=O)N[C@@H]2C(=O)N[C@H](C(C)C)C(=O)N3CCC[C@H]3C(=O)N(C)CC(=O)N(C)[C@@H](C(C)C)C(=O)O[C@@H]2C)c(NCCCNC2CC(C)(C)[N+]([O-])C(C)(C)C2)c1=O |  |  |  |  |  |  |  |  |  |  |  |  |  |  |  |  |  |  |  |  | Activity (Mus musculus [29]): Toxic; IC50 [27]: 2730 nM
5 | Cc1c2oc3c(C)ccc(C(=O)N[C@@H]4C(=O)N[C@H](C(C)C)C(=O)N5CCC[C@H]5C(=O)N(C)CC(=O)N(C)[C@@H](C(C)C)C(=O)O[C@@H]4C)c3nc-2c(C(=O)N[C@@H]2C(=O)N[C@H](C(C)C)C(=O)N3CCC[C@H]3C(=O)N(C)CC(=O)N(C)[C@@H](C(C)C)C(=O)O[C@@H]2C)c(NC2CC(C)(C)[N+]([O-])C(C)(C)C2)c1=O |  |  |  |  |  |  |  |  |  |  |  |  |  |  |  |  |  |  |  |  | Activity (Mus musculus [29]): Toxic
6 | Cc1c2oc3c(C)ccc(C(=O)N[C@@H]4C(=O)N[C@H](C(C)C)C(=O)N5CCC[C@H]5C(=O)N(C)CC(=O)N(C)[C@@H](C(C)C)C(=O)O[C@@H]4C)c3nc-2c(C(=O)N[C@@H]2C(=O)N[C@H](C(C)C)C(=O)N3CCC[C@H]3C(=O)N(C)CC(=O)N(C)[C@@H](C(C)C)C(=O)O[C@@H]2C)c(NC2CC(C)(C)N([O])C(C)(C)C2)c1=O | 41 | 29 | 276 | 10 | 78 | 17 | 162 | 37 | 0 | inactive | 21 | 96 | 0 | 19 | 181 | 39 | 26 | 248 | inactive | 77 | inhibition [17]: 21%; Survival (P388 [18]): 20 days; T/C (P388 [18]): 190%; inhibition at 10 µg/mL (L1210 [19]): 98%; Survival (P388 [20]): 17 days; T/C (P388 [20]): 162%; inhibition [21]: 33%; inhibition at 1 µg/mL (L1210 [22]): 57%; ΔTm (Calf thymus DNA [23]): 1.7 °C; inhibition [24]: 57%; inhibition [25]: 62%
